Measured values as given in patent US9856225B2, “Substituted phenazines as antimicrobial agents” (University of Florida Research Foundation, Incorporated, priority 2013, dated 2018).
In brackets after ≈: the same amount, converted by molar mass. Marks after values point to notes of the source that are not given here.

Legend:
[1] = Hydrolysis stability in sterile water; format: physicochemical; conditions: 24 hours at 37° C., static, TLC and NMR
Protocol: Compound storage. Solid stocks of the compounds described herein were stored at −80° C. in vials sealed with PARAFILM. Between 2.0 and 4.5 milligrams of each compound was weighed out, and a 10 mM DMSO stock solution of each compound were prepared. DMSO stock solutions were stored at room temperature in the dark (e.g., wrapped in aluminum foil). At this concentration, a few compounds required gentle heating to completely solubilize. DMSO stock solutions were not subjected to any freeze-thaw cycles to prevent compound breakdown. The compounds were stable in DMSO for several weeks under these mild storage conditions, with the exception of pyocyanin. Pyocyanin is unstable in DMSO at room temperature after one day. […] DMSO stock solutions of about 2 milligrams of pyocyanin were made fresh each day. The hydrolysis stability of select compounds was also tested, e.g., by subjecting these compounds to conditions mimicking the biofilm assays described herein. In one set of exemplary experiments, 3.2 to 4.5 mgs of each of compounds 18a, 12a, 23a, and 21 were treated with 1 mL of sterile water to form a mixture. Each of the mixtures was allowed to be incubated for 24 hours at 37° C. under static conditions analogous to the S. aureus biofilm inhibition assays described herein. After 24 hours, each of the mixtures was extracted with dichloromethane and evaluated, using TLC and NMR, for hydrolysis of each of compounds 18a, 12a, 23a, and 21 to compound 11.

MRSA-2 biofilms [2] = test: Biofilm eradication assay (MBEC); format: cell-based, Staphylococcus aureus; conditions: for Biofilm Eradication MBEC: MRSA-2
Protocol: Biofilm eradication assays. […] The protocol for the biofilm eradication assays was essentially the same as the protocols reported in Eun et al., J. Am. Chem. Soc., 2012, 134, 11322 and Ceri et al., J. Clin. Microbiol., 1999, 37, 1771. Biofilm eradication assays were essentially biofilm dispersion assays with the addition of a final treatment with fresh media (and incubation at 37° C. for 24 hours) instead of crystal violet staining. This final incubation allowed viable cells within the biofilm to grow. At the end of this final incubation in biofilm eradication assays, microtiter wells void of turbidity represented eradicated biofilms, and the lowest concentration at which no visible growth was observed was referred to as the minimum biofilm eradication concentration (MBEC). Potent biofilm eradicating small molecules are extremely rare (Fletcher et al., Tetrahedron, 2014, 70, 6373; Jennings et al., ChemBioChem, 2014, 15, 2211). For these experiments, MRSA-2 was selected as the model since MRSA-2 is a multidrug-resistant, biofilm-forming clinical isolate of Staphylococcus aureus (Priyaja et al., Cytotechnol., 2014, doi: 10.1007/s10616-014-9765-5).

MRSA-2 = test: MIC against MRSA-2; format: cell-based; conditions: Staphylococcus aureus, read-out: MIC against MRSA-2
Protocol: Antibiotic Susceptibility Tests (MIC Assay Protocol). The minimum inhibitory concentration (MIC) for each compound described herein was determined by the broth microdilution method as recommended by the Clinical and Laboratory Standards Institute (CLSI) (Clinical and Laboratory Standards Institute. 2009. Methods for dilution antimicrobial susceptibility tests for bacteria that grow aerobically; approved standard, eighth edition (M7-A8)). In a 96-well plate, eleven two-fold serial dilutions of each compound were made in a final volume of 100 μL Luria Broth (one column served as a blank; see the MIC assay described herein). Each well was inoculated with 10^5 bacterial cells at the initial time of incubation, prepared from a fresh log phase culture (OD600 of 0.5). […] The concentration range tested for each compound during this study was 0.10 to 100 μM. DMSO served as the vehicle and negative control in each microdilution MIC assay. DMSO was serially diluted at the same concentration as the compounds with a top concentration of 1% v/v. Bacterial strains used: Staphylococcus aureus (ATCC 25923), Staphylococcus epidermidis (ATCC 12228) and Pseudomonas aeruginosa (PAO1). […]
Vancomycin's activity against MRSA-2. Vancomycin was also evaluated against MRSA-2 since vancomycin has been considered to be the drug of last resort against MRSA infections.

MRSA-2 biofilms [3] = test: MRSA-2 biofilm dispersion assay; format: cell-based; conditions: Staphylococcus aureus, 24 h, read-out: MRSA-2 biofilm dispersion EC50
[4] = test system: Pseudomonas aeruginosa (PAO1); test: MIC broth microdilution (CLSI), Luria Broth; format: cell-based; conditions: Table 1, PAO1, read-out: Pseudomonas aeruginosa MIC
In short: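 Two-fold serial dilutions (0.10–100 μM, eleven points) in Luria Broth, each well inoculated with 10^5 cells from log-phase culture (OD600 0.5), per CLSI broth microdilution. DMSO vehicle up to 1% v/v as negative control; kanamycin positive control for the staphylococci.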

| SMILES | stability to hydrolysis (to compound 11) [1] | Biofilm Eradication MBEC (MRSA-2 biofilms [2]) | other results |
| --- | --- | --- | --- |
| CC(=O)Oc1c(Br)cc(Br)c2nc3ccccc3nc12 [Compound 21, 2,4-Dibromophenazin-1-yl acetate] | stable to hydrolysis | – | – |
| O=C(OCC(Cl)(Cl)Cl)Oc1c(Br)cc(Br)c2nc3ccccc3nc12 [Compound 27a] | – | 125 µM | – |
| Cc1ccc(C(=O)Oc2c(Br)cc(Br)c3nc4ccccc4nc23)cc1 [Compound 18a] | stable to hydrolysis | – | – |
| O=C(Oc1c(Br)cc(Br)c2nc3ccccc3nc12)c1ccc(Br)cc1 [Compound 12a] | stable to hydrolysis | – | – |
| Oc1c(Br)cc(Br)c2nc3ccccc3nc12 [Compound 11, 2,4-Dibromophenazin-1-ol] | – | 100-200^c μM | MIC (MRSA-2): 1.56 µM (≈ 0.552 µg/mL); MBEC:MIC ratio (MRSA-2 biofilms [2]; MRSA-2 biofilm vs planktonic): 64-128; EC50 (MRSA-2 biofilms [3]): 3.53 µM; MIC [4]: > 100 µM |
| CCC(=O)Oc1c(Br)cc(Br)c2nc3ccccc3nc12 [Compound 4a] | – | 125 µM | – |
| O=C(Oc1c(Br)cc(Br)c2nc3ccccc3nc12)c1ccco1 [Compound 23a] | stable to hydrolysis | 62.5 to 100 µM | – |
